Some test systems named below: Mtb strain B3 tatA; Mtb strain A6 tatB; Mtb strain A3 tatB; Mtb strain B1 tatC; Mtb strain B2 tatC.
What all share (type): cell-based, Mycobacterium tuberculosis
Experiment [1] deals with Q112-resistant Mtb strains. Put plainly: microbe, parasite or virus in culture.

Converted amounts (≈) assume the structure as drawn. A value given as a limit tells only on which side of the number the result lay.

As for `CC(C)/N=c1\cc2n(-c3ccc(Cl)cc3)c3ccccc3nc-2cc1Nc1ccc(Cl)cc1` [Clofazimine], in the experiment with Mtb strain B3 tatA, the “resistance (MIC increase) versus wild-type” value turned out to be 4 fold.

With `C[C@@H](O)[C@H]1C(=O)N2C(C(=O)O)=C(SCCN=CN)C[C@H]12` [Imipenem], in the experiment with Mtb strain B3 tatA, the “resistance (MIC increase) versus wild-type” value is 16 fold.

On to `CN[C@H](CC(C)C)C(=O)N[C@H]1C(=O)N[C@@H](CC(N)=O)C(=O)N[C@H]2C(=O)N[C@H]3C(=O)N[C@H](C(=O)N[C@H](C(=O)O)c4cc(O)cc(O)c4-c4cc3ccc4O)[C@H](O)c3ccc(c(Cl)c3)Oc3cc2cc(c3O[C@@H]2O[C@H](CO)[C@@H](O)[C@H](O)[C@H]2O[C@H]2C[C@](C)(N)[C@H](O)[C@H](C)O2)Oc2ccc(cc2Cl)[C@H]1O` [Vancomycin], for which the “factor of MIC decrease (hypersensitivity) versus wild-type” value (from here on “factor of MIC decrease”) in experiment [1] is 4–5 factor.

As for `CO[C@H]1/C=C/O[C@@]2(C)Oc3c(C)c(O)c4c(O)c(c(/C=N/N5CCN(C)CC5)c(O)c4c3C2=O)NC(=O)/C(C)=C\C=C\[C@H](C)[C@H](O)[C@@H](C)[C@@H](O)[C@@H](C)[C@H](OC(C)=O)[C@@H]1C` [Rifampicin], the “factor of MIC decrease” value in experiment [1] is given as 3–6 factor.

With Capreomycin, the “MIC A6 tatB” value against Mtb strain A6 tatB came to 1.2 µM. Also, the “MIC A3 tatB” value in the experiment on Mtb strain A3 tatB came to 0.78 µM. Moreover, in the experiment with Mtb strain B1 tatC, the “MIC B1 tatC” value is 0.78 µM. For the same compound, the “MIC B2 tatC” value against Mtb strain B2 tatC came out at 1.2 µM. In addition, the “MIC B3 tatA” value against Mtb strain B3 tatA is 0.78 µM.

`C[C@]1(COc2ccc(N3CCC(Oc4ccc(OC(F)(F)F)cc4)CC3)cc2)Cn2cc([N+](=O)[O-])nc2O1` [Delamanid]: the “MIC increase versus wild-type” value in experiment [1] is on record as 3–12 fold.

Turning to `CC1(C)S[C@@H]2[C@H](NC(=O)[C@H](N)c3ccccc3)C(=O)N2[C@H]1C(=O)O` [Ampicillin], the “factor of MIC decrease” value in experiment [1] is above 16 factor. In addition, in experiment [1] (Mycobacterium tuberculosis), the MIC was in the range of 1.6 to 3.1 µM (≈ 0.559 to 1.08 µg/mL).
